Experimental data reported in ChEMBL document CHEMBL4052735, “One-pot two-step facile synthesis of 2,3,4,5-tetra substituted dihydrooxazoles and their antimicrobial activity” (2017).
In brackets after ≈: the same amount, converted by molar mass. Activity calls are given as the source filed them. No cut-off for these calls is given here.

How the values were obtained:
Format in all cases: functional
[1] = test system: Phytophthora infestans; test: Antifungal activity against Phytophthora infestans after 48 to 72 hrs by disk diffusion method
[2] = test system: Klebsiella pneumoniae; test: Antibacterial activity against Klebsiella pneumoniae after 24 hrs by visual and spectrophotometric analysis
[3] = test system: Staphylococcus aureus; test: Antibacterial activity against Staphylococcus aureus after 24 hrs by visual and spectrophotometric analysis
[4] = test system: Bacillus subtilis; test: Bactericidal activity against Bacillus subtilis after 24 hrs by visual and spectrophotometric analysis
[5] = test system: Staphylococcus aureus; test: Bactericidal activity against Staphylococcus aureus after 24 hrs by visual and spectrophotometric analysis
[6] = test system: Klebsiella pneumoniae; test: Bactericidal activity against Klebsiella pneumoniae after 24 hrs by visual and spectrophotometric analysis
[7] = test system: Escherichia coli; test: Bactericidal activity against Escherichia coli after 24 hrs by visual and spectrophotometric analysis
[8] = test system: Bacillus subtilis; test: Antibacterial activity against Bacillus subtilis after 24 hrs by visual and spectrophotometric analysis
[9] = test system: Bacillus subtilis; test: Ratio of MBC to MIC against Bacillus subtilis
[10] = test system: Escherichia coli; test: Antibacterial activity against Escherichia coli after 24 hrs by visual and spectrophotometric analysis
[11] = test system: Staphylococcus aureus; test: Ratio of MBC to MIC against Staphylococcus aureus
[12] = test system: Klebsiella pneumoniae; test: Ratio of MBC to MIC against Klebsiella pneumoniae
[13] = test system: Escherichia coli; test: Ratio of MBC to MIC against Escherichia coli

Compound	MIC [1] [µg/mL]	MIC [2]	MIC [3]	MBC [4]	MBC [5]	MBC [6]	MBC [7]	MIC [8]	Ratio [9]	MIC [10]	Ratio [11]	Ratio [12]	Ratio [13]
COc1ccc(C2OC(c3ccccc3)=C(c3ccccc3)N2NC(=S)Nc2ccc(Cl)cc2)cc1 (configuration not stated)	16 (≈ 31.1 µM)												
Oc1ccc(C2OC(c3ccccc3)=C(c3ccccc3)N2NC(=S)Nc2ccc(Cl)cc2)cc1 (configuration not stated)	16 (≈ 32 µM)												
Cc1ccc(NC(=S)NN2C(c3ccccc3)=C(c3ccccc3)OC2c2ccc(O)cc2)cc1 (configuration not stated)	14 (≈ 29.2 µM)												
O=C(O)c1cn(C2CC2)c2cc(N3CCNCC3)c(F)cc2c1=O [CIPROFLOXACIN]		6.25 µg/mL (≈ 18.9 µM)	6.5 µg/mL (≈ 19.6 µM)	25 µg/mL (≈ 75.4 µM)	12.5 µg/mL (≈ 37.7 µM)	10.2 µg/mL (≈ 30.9 µM)	25 µg/mL (≈ 75.4 µM)	10 µg/mL (≈ 30.2 µM)					
Oc1ccc(C2OC(c3ccccc3)=C(c3ccccc3)N2NC(=S)Nc2ccccc2)cc1 (configuration not stated)	10 (≈ 21.5 µM)												
COC1=CC(=O)C[C@@H](C)[C@]12Oc1c(Cl)c(OC)cc(OC)c1C2=O [GRISEOFULVIN]	20 (≈ 56.7 µM)												
COc1ccc(NC(=S)NN2C(c3ccccc3)=C(c3ccccc3)OC2c2ccc(O)cc2)cc1 (configuration not stated)	16 (≈ 32.3 µM)												
Oc1ccc(C2OC(c3ccccc3)=C(c3ccccc3)N2NC(=S)Nc2ccccc2Cl)cc1 (configuration not stated)		inactive	30 µg/mL (≈ 60 µM)	100 µg/mL (≈ 200 µM)	50 µg/mL (≈ 100 µM)	inactive	inactive	40 µg/mL (≈ 80 µM)	2.5	inactive	1.6		
COc1ccc(C2OC(c3ccccc3)=C(c3ccccc3)N2NC(=S)Nc2ccccc2C)cc1 (configuration not stated)		25 µg/mL (≈ 50.6 µM)	30 µg/mL (≈ 60.8 µM)	50 µg/mL (≈ 101 µM)	100 µg/mL (≈ 203 µM)	50 µg/mL (≈ 101 µM)	inactive	20 µg/mL (≈ 40.5 µM)	2.5	inactive	3.3	2	
Cc1ccccc1NC(=S)NN1C(c2ccccc2)=C(c2ccccc2)OC1c1ccc(O)cc1 (configuration not stated)		50 µg/mL (≈ 104 µM)	inactive	inactive	inactive	100 µg/mL (≈ 209 µM)	inactive	inactive		inactive		2	
COc1ccccc1NC(=S)NN1C(c2ccccc2)=C(c2ccccc2)OC1c1ccc(O)cc1 (configuration not stated)		25 µg/mL (≈ 50.4 µM)	inactive	inactive	inactive	50 µg/mL (≈ 101 µM)	inactive	inactive		inactive		2	
COc1ccc(C2OC(c3ccccc3)=C(c3ccccc3)N2NC(=S)Nc2ccc(C)cc2)cc1 (configuration not stated)	14 (≈ 28.4 µM)												
COc1ccc(C2OC(c3ccccc3)=C(c3ccccc3)N2NC(=S)Nc2ccccc2Cl)cc1 (configuration not stated)		inactive	inactive	inactive	inactive	inactive	50 µg/mL (≈ 97.3 µM)	inactive		25 µg/mL (≈ 48.6 µM)			2
COc1ccc(C2OC(c3ccccc3)=C(c3ccccc3)N2NC(=S)Nc2ccccc2OC)cc1 (configuration not stated)		inactive	40 µg/mL (≈ 78.5 µM)	50 µg/mL (≈ 98.1 µM)	100 µg/mL (≈ 196 µM)	inactive	inactive	30 µg/mL (≈ 58.9 µM)	1.6	inactive	2.5		
